ChEMBL document CHEMBL3885861, “Open TG-GATES”

Species: Rattus norvegicus
Assay: Open TG-GATES - Regimen: Single
Type: toxicity, organism-based, Sprague-Dawley
Parameters: regimen Single, gender Male, age 6 weeks
Details: in vivo, po, 100 mg/kg, route gavage, dose level Low; for APTT / Bas / Eos / Fbg / Hb / Ht / Lym / MCH / MCHC / MCV / Mono / Neu / PT / Plat / RBC / Ret / WBC: tissue Blood; for KIDNEY_L / KIDNEY_R / KIDNEY_TOTAL: tissue Kidney; for LIVER: tissue Liver; for A/G / ALP / ALT / AST / BUN / CRE / Ca / Cl / DBIL / GLC / IP / K / LDH / Na / PL / RALB / TBIL / TC / TG / TP / gamma-GTP: tissue Plasma

`O=C(OC[C@H]1O[C@@H](OC(=O)c2cc(O)c(O)c(OC(=O)c3cc(O)c(O)c(O)c3)c2)[C@H](OC(=O)c2cc(O)c(O)c(OC(=O)c3cc(O)c(O)c(O)c3)c2)[C@@H](OC(=O)c2cc(O)c(O)c(OC(=O)c3cc(O)c(O)c(O)c3)c2)[C@@H]1OC(=O)c1cc(O)c(O)c(OC(=O)c2cc(O)c(O)c(O)c2)c1)c1cc(O)c(O)c(OC(=O)c2cc(O)c(O)c(O)c2)c1` [TANNIC ACID] gave a TERMINAL_BW (3 h) of 188.9 g, an APTT (3 h) of 16.1 s and a Bas (3 h) of 0%. The Eos (3 h) was 1.2%, the Fbg (3 h) was 212.2 mg/dL and the Hb (3 h) was 13 g/dL. For the same molecule, the Ht (3 h) was 38.5%, the Lym (3 h) was 82% and the MCH (3 h) was 22.2 pg. It also gave an MCHC (3 h) of 33.8%, an MCV (3 h) of 65.6 fL and a Mono (3 h) of 5.8%. For the same molecule, the Neu (3 h) was 11.2%, the PT (3 h) was 11.5 s and the Plat (3 h) was 112.2 x10_4/uL. For the same molecule, the RBC (3 h) was 587 x10_4/ul, the Ret (3 h) was 10.1% and the WBC (3 h) was 96.7 x10_2/uL. For the same molecule, the KIDNEY_L (3 h) was 0.9 g, the KIDNEY_R (3 h) was 0.9 g and the KIDNEY_TOTAL (3 h) was 1.7 g. The LIVER (3 h) was 8.6 g, the A/G (3 h) was 2 and the ALP (3 h) was 882 IU/L. The ALT (3 h) was 37.8 IU/L, the AST (3 h) was 70.2 IU/L and the BUN (3 h) was 15.8 mg/dL. For the same molecule, the CRE (3 h) was 0.5 mg/dL, the Ca (3 h) was 10.9 mg/dL and the Cl (3 h) was 105 meq/L. The DBIL (3 h) was 0.018 mg/dL, the GLC (3 h) was 198 mg/dL and the IP (3 h) was 10.2 mg/dL. The K (3 h) was 4.9 meq/L, the LDH (3 h) was 75 IU/L and the Na (3 h) was 139.2 meq/L. The PL (3 h) was 128.8 mg/dL, the RALB (3 h) was 3.5 g/dL and the TBIL (3 h) was 0.5 mg/dL. It also gave a TC (3 h) of 68.6 mg/dL, a TG (3 h) of 47.6 mg/dL and a TP (3 h) of 5.3 g/dL. It also gave a gamma-GTP (3 h) of 2.2 IU/L, a TERMINAL_BW (6 h) of 185 g and an APTT (6 h) of 17.1 s. It also gave a Bas (6 h) of 0%, an Eos (6 h) of 1% and a Fbg (6 h) of 212.6 mg/dL. For the same molecule, the Hb (6 h) was 12.7 g/dL, the Ht (6 h) was 37.9% and the Lym (6 h) was 78.4%. For the same molecule, the MCH (6 h) was 22.6 pg, the MCHC (6 h) was 33.5% and the MCV (6 h) was 67.3 fL. The Mono (6 h) was 6.4%, the Neu (6 h) was 14.6% and the PT (6 h) was 12 s. For the same molecule, the Plat (6 h) was 109.6 x10_4/uL, the RBC (6 h) was 564 x10_4/ul and the Ret (6 h) was 10.4%. The WBC (6 h) was 85.8 x10_2/uL, the KIDNEY_L (6 h) was 0.9 g and the KIDNEY_R (6 h) was 0.9 g. It also gave a KIDNEY_TOTAL (6 h) of 1.8 g, an LIVER (6 h) of 8.5 g and an A/G (6 h) of 2. For the same molecule, the ALP (6 h) was 684.8 IU/L, the ALT (6 h) was 38.6 IU/L and the AST (6 h) was 70.4 IU/L. It also gave a BUN (6 h) of 12.6 mg/dL, a CRE (6 h) of 0.5 mg/dL and a Ca (6 h) of 10.8 mg/dL. For the same molecule, the Cl (6 h) was 105 meq/L, the DBIL (6 h) was 0.032 mg/dL and the GLC (6 h) was 188.2 mg/dL. The IP (6 h) was 10.4 mg/dL, the K (6 h) was 4.5 meq/L and the LDH (6 h) was 102.8 IU/L. For the same molecule, the Na (6 h) was 140.6 meq/L, the PL (6 h) was 140.2 mg/dL and the RALB (6 h) was 3.5 g/dL. It also gave a TBIL (6 h) of 0.5 mg/dL, a TC (6 h) of 86 mg/dL and a TG (6 h) of 41.4 mg/dL. The TP (6 h) was 5.3 g/dL, the gamma-GTP (6 h) was 1.2 IU/L and the TERMINAL_BW (9 h) was 180.9 g. The APTT (9 h) was 16.4 s, the Bas (9 h) was 0% and the Eos (9 h) was 1%. The Fbg (9 h) was 217.4 mg/dL, the Hb (9 h) was 13.2 g/dL and the Ht (9 h) was 39.3%. The Lym (9 h) was 80.4%, the MCH (9 h) was 22.3 pg and the MCHC (9 h) was 33.6%. The MCV (9 h) was 66.5 fL, the Mono (9 h) was 6.8% and the Neu (9 h) was 12%. It also gave a PT (9 h) of 12 s, a Plat (9 h) of 112.9 x10_4/uL and an RBC (9 h) of 591.6 x10_4/ul. The Ret (9 h) was 10.1%, the WBC (9 h) was 105.1 x10_2/uL and the KIDNEY_L (9 h) was 0.8 g. For the same molecule, the KIDNEY_R (9 h) was 0.8 g, the KIDNEY_TOTAL (9 h) was 1.6 g and the LIVER (9 h) was 7.2 g. For the same molecule, the A/G (9 h) was 2, the ALP (9 h) was 837.8 IU/L and the ALT (9 h) was 35.2 IU/L. For the same molecule, the AST (9 h) was 64.2 IU/L, the BUN (9 h) was 12.6 mg/dL and the CRE (9 h) was 0.4 mg/dL. For the same molecule, the Ca (9 h) was 10.3 mg/dL, the Cl (9 h) was 106.4 meq/L and the DBIL (9 h) was 0.072 mg/dL. For the same molecule, the GLC (9 h) was 190.2 mg/dL, the IP (9 h) was 10.2 mg/dL and the K (9 h) was 4.9 meq/L. It also gave an LDH (9 h) of 101.4 IU/L, a Na (9 h) of 137.6 meq/L and a PL (9 h) of 135.2 mg/dL. For the same molecule, the RALB (9 h) was 3.6 g/dL, the TBIL (9 h) was 0.5 mg/dL and the TC (9 h) was 78.8 mg/dL. It also gave a TG (9 h) of 24.6 mg/dL, a TP (9 h) of 5.4 g/dL and a gamma-GTP (9 h) of 1.6 IU/L. The TERMINAL_BW (24 h) was 201.1 g, the APTT (24 h) was 16.7 s and the Bas (24 h) was 0%. The Eos (24 h) was 1%, the Fbg (24 h) was 227.8 mg/dL and the Hb (24 h) was 12.8 g/dL. For the same molecule, the Ht (24 h) was 38.4%, the Lym (24 h) was 78.8% and the MCH (24 h) was 21.9 pg. It also gave an MCHC (24 h) of 33.4%, an MCV (24 h) of 65.6 fL and a Mono (24 h) of 5.4%. It also gave a Neu (24 h) of 14.8%, a PT (24 h) of 11.7 s and a Plat (24 h) of 114.5 x10_4/uL. It also gave an RBC (24 h) of 585.2 x10_4/ul, a Ret (24 h) of 10.1% and a WBC (24 h) of 96.6 x10_2/uL. For the same molecule, the KIDNEY_L (24 h) was 0.9 g, the KIDNEY_R (24 h) was 0.9 g and the KIDNEY_TOTAL (24 h) was 1.8 g. For the same molecule, the LIVER (24 h) was 9.7 g, the A/G (24 h) was 2 and the ALP (24 h) was 823.4 IU/L. For the same molecule, the ALT (24 h) was 41.2 IU/L, the AST (24 h) was 63 IU/L and the BUN (24 h) was 17.8 mg/dL. For the same molecule, the CRE (24 h) was 0.5 mg/dL, the Ca (24 h) was 10.8 mg/dL and the Cl (24 h) was 103.8 meq/L. The DBIL (24 h) was 0.008 mg/dL, the GLC (24 h) was 190.6 mg/dL and the IP (24 h) was 8.7 mg/dL. The K (24 h) was 4.5 meq/L, the LDH (24 h) was 98.2 IU/L and the Na (24 h) was 138 meq/L. For the same molecule, the PL (24 h) was 147.2 mg/dL, the RALB (24 h) was 3.6 g/dL and the TBIL (24 h) was 0.3 mg/dL. The TC (24 h) was 81.4 mg/dL, the TG (24 h) was 101.6 mg/dL and the TP (24 h) was 5.5 g/dL. The gamma-GTP (24 h) was 1 IU/L.
